The nature of data set [1]: Experiment 2, formulation screening: dissolution of paclitaxel. The data set is classed as physicochemical.
The conditions of data set [2]: cited from earlier work.
The conditions of data set [3]: in the human body; cited from earlier work.

Turning to `CC(=O)Oc1ccccc1C(=O)[O-].[Na+]` [乙酰水杨酸钠], the figures for the “solubilizing (hydrotropic) effect on paclitaxel” value in data set [1] (alone) and in data set [1] (used together with 1,2-propanediol) were “具有助溶作用” and “具有增加的助溶作用”, respectively.

Regarding `CC(=O)O[C@H]1C(=O)[C@@]2(C)[C@H]([C@H](OC(=O)c3ccccc3)[C@]3(O)C[C@H](OC(=O)[C@H](O)[C@@H](NC(=O)c4ccccc4)c4ccccc4)C(C)=C1C3(C)C)[C@]1(OC(C)=O)CO[C@@H]1C[C@@H]2O` [紫杉醇, 5β,20-环氧-1,2α,4,7β,10β,13α-六羟基紫杉烷-11-烯-9-酮-4,10-二乙酸酯-2-苯甲酸酯-13[(2’R,3’S)-N-苯甲酰-3-苯基异丝氨酸酯]], the “solubility in organic solvents (in words)” value in data set [2] (methanol, ethanol or chloroform) is on record as “溶解”. For the same compound, in data set [2] (water), the “solubility in water (in words)” value was “几乎不溶”. Also, the effective bioavailability entry in data set [3] is given as “低”.
